Test results from patent publication US12329815B2, “Acoustic driven drug delivery systems” (UNIVERSITY OF OTAGO, priority 2015, dated 2025).

How the values were obtained:
[1] = in vivo; cited from earlier work
[2] = tested on: entorhinal cortex (EC) slices; assay: Low Mg2+ (Mg2+-free) in vitro model of epilepsy: frequency of epileptiform events; type: cell-based, Wistar rats; details: 10 μM non-liposomal, 15 min wash-in; n=4 slices
Text: In the ‘low Mg^2+’ in vitro model of epilepsy the susceptibility of the entorhinal cortex (EC) to seizure activity is exploited by acutely bathing EC slices in Mg^2+-free artificial cerebrospinal fluid (ACSF). The removal of Mg^2+ from the extracellular environment consequently removes the normal Mg^2+ block on the N-Methyl-D-aspartic acid (NMDA) receptor. […]
Recordings from the tissue chamber were made using Ag/AgCl pellet electrodes (Harvard Apparatus, UK). The signal was collected on a chart recorder (Semat, UK) or digitally recorded (Neurolog, UK). […] Digitally recorded signals were amplified (×100 gain) and high-pass filtered (8.9 Hz cut-off). […] Drugs were applied via the perfusate (Mg^2+-free ACSF) and the frequency of epileptiform events (SLEs or LRDs) were measured before and during drug application. […]
To determine the effect of control drug solutions on the frequency of epileptiform activity, the frequency of events 30 min (in most cases) prior to drug application (pre-drug) was compared with the frequency of events during the wash-in period (15 min). For the drug delivered in liposomes, in addition to the frequency of pre-drug events and during wash-in, the frequency of events during 30 min immediately after the application of the ultrasound trigger was also quantified. […]

| SMILES | fraction crossing the blood-brain barrier [1] | reduction in epileptiform activity [2] |
| --- | --- | --- |
| N[C@@H](Cc1ccc(O)c(O)c1)C(=O)O [levodopa] | 5-10% |  |
| NCc1cc(O)no1 [muscimol, 5-(aminomethyl)-isoxazol-3-ol] |  | 85%±14 |
